Measurements: US20200383327A1, “METHOD OF IMPROVING PLANT PERFORMANCE” (The State of Israel, Ministry of Agriculture & Rural …, priority 2018, published 2020)

Tests used:
Format in all cases: in vivo
[1] = Plant crop production (fruits)
Method: FIGS. 21A-21D are bar graphs showing the effects of 1-4 mM solution on plant crop production (e.g., fruits). Plants were treated with 2 mM once or twice, once with 4 mM or non-treated (control). (21A) is a graph showing the cumulative weight of fruits per plant. (21B) is a graph showing the number of fruits per plant. (21C) is a graph showing the average weight of a fruit. (21D) is a graph showing the number of young fruits, e.g., “set fruit”.

Anthracnose = Anthracnose incidence on harvested mango after orchard flowering spray; conditions: application during orchard flowering; stored at ambient temperature for 12 days; FIG. 23B
From the text: FIGS. 23A-C: Effect of flowering application on disease incidence. Avocado and Mango cv. ‘Kent’ orchards were sprayed with fungicide (Pyrimethanil+Fludioxonil) or with phenylalanine during flowering. (FIG. 23A). Powdery Mildew incidence (percentage) per inflorescence in mango orchard. (FIG. 23B). Anthracnose incidence (percentage) on harvested mango stored at ambient temperature for 12 days. (FIG. 23CB). Anthracnose incidence (percentage) on harvested avocado stored at ambient temperature for 14 days.
Flowering is one of the more susceptible organs of the tree. Pathogenic fungi can penetrate during flowering and either infect the flower (e.g., powdery mildew) or endophytically colonize the stem and the fruit without causing any visible symptoms. Those fungi (e.g. Colletotrichum and Lasiodiplodia) become active during abiotic stress or during fruit ripening and cause fruit stem-end rot and anthracnose.

Oidiopsis sicula = experiment: Oidiopsis powdery mildew on tomato plants; conditions: 4 mM Phe solution, drench or spray, each treatment; 24 days after treatment; FIG. 12
Method: FIG. 12 is a bar graph showing the effect of 4 mM Phe solution on the severity of Oidiopsis sicula powdery mildew on tomato plants. The Phe solution was applied by spraying and by drench on the tomato plants at 3 days before and 4 hours before incubation in the greenhouse Incidence of Oidiopsis powdery mildew was evaluated 24 days after treatment.
Conidia of Oidiopsis sicula were collected from leaves of a diseased plant, suspended in water and sprayed on the tomato plants. The plants were kept in a greenhouse with 18-28° C. Disease severity of Oidiopsis powdery mildew was evaluated on a scale of 0-100% where 100=all leaves covered by disease symptoms.

Colletotrichum = experiment: Spots and pitting of infected mango fruits under 7° C.; conditions: post-harvest treated and infested mango
Method: (§1) FIGS. 19A-19G are images and graphs showing the effect of Phe solution on fruit post-harvest rotting under cold temperature resistance. (19A-19B) are images showing post-harvest control and treated mango fruits, respectively, stored in 7° C. […] (19C-19D) are vertical bar graphs showing indices of spots (19C) and pitting (19D) of mango fruits infected by Colletotrichum or Lasiodiplodia under 7° C. (19E-19G) are vertical bar graph showing […] decay was shown at 7° C., and side decay and total decay were shown at 7° C. and 10° C.
(§2) Mango fruits were treated with Phe solution post-harvest. Fruits were stored in either 7° C. or 10° C., and decay was inspected and documented. Post-harvest treatment as described hereinabove reduced stem decay, side decay, and total decay (FIGS. 19E-19G). […] Fruits were both treated with AAA and infested with […] post-harvest. […] (FIGS. 19C-19D).

Lasiodiplodia = experiment: as above; conditions: post-harvest treated and infested mango
Method: as §1, §2

[2] = Mango fruit decay in cold storage after post-harvest treatment
Method: as §1, §2

Tuta absoluta = experiment: Tomato leaf miner damage on tomato plants, natural infestation in greenhouse
Method: FIGS. 3A-3E are images and bar graphs showing the effect of 4 mM of phenylalanine applied by drenching or spraying on the severity of […] in tomato, 13 days post treatment. FIG. 3A—an image showing the damage caused by the tomato leaf miner, the insect moth Tuta absoluta on tomato leaflet. FIG. 3B—a vertical bar graph showing severity of damage of Tuta absoluta on tomato leaves treated with drench or spray of 4 mM solution phenylalanine. Disease was evaluated on a 0-100% severity of symptoms coverage and calculation of area under disease progress curve (AUDPC) 13 days after treatment. […] Symptoms incidence per plant was evaluated 30 days after treatment. […] FIG. 3C—a vertical bar graph showing the effect of 4 mM Phe solution on the incidence of tomato leaf miner on tomato plants. The Phe solution was applied by spraying and by drench on the tomato plants at 3 days before and 4 hours before incubation in the greenhouse. Infection was natural. FIG. 3D—a vertical bar graph showing the effect of 4 mM Phe solution on the incidence of tomato leaf miner on tomato plants. The Phe solution was applied by spraying and by drench on the tomato plants at 3 days before and 4 hours before incubation in the greenhouse. Infection was natural. Symptoms incidences per plant at large size and at smaller size (up to 1 cm) were evaluated 30 days after treatment. […] FIG. 3E—a vertical bar graph showing the effect of 4 mM Phe solution on the rate of tomato leaf miner symptoms on tomato plants. The Phe solution was applied by spraying and by drench on the tomato plants at 3 days before and 4 hours before incubation in the greenhouse. Infection was natural. Symptoms incidences per plant at large size and at smaller size (up to 1 cm) were evaluated 30 days after treatment and the percent of large symptoms was calculated.
Tomato plants were grown in pots in a nonheated greenhouse where temperatures were 17-32° C. […] Damage of the pest was evaluated according to a 0-100% severity scale where 0=no symptoms followed by a calculation of area under disease progress curve (AUDPC) 13 days after treatment.

Bemisia tabaci = experiment: Silver leaf whitefly incidence on tomato leaves; conditions: 4 mM Phe solution, drench or spray, each treatment; 30 days after treatment; FIG. 10
Method: FIG. 10 is a bar graph showing the effect of 4 mM Phe solution on the severity of silver leaf white fly (SLWF) on tomato plants. The Phe solution was applied by spraying and by drench on the tomato plants at 3 days before and 4 hours before incubation in the greenhouse. Incidence of SLWF was evaluated on a representative leaf 30 days after treatment.
The insect silver leaf whitefly Bemisia tabaci Gennadius (commonly also sweet potato whitefly) occurred naturally on the treated tomato plants. The plants were kept in a greenhouse with 18-28° C. Incidence of insect individuals' number on the 10th leaf of the tomato plants was counted.

For `N[C@@H](Cc1ccccc1)C(=O)O` [Phe, Phenylalanine], the “Number of young fruits (set fruit)” value ([1]; 4 mM-treated plants vs control, FIG. 21D) was “greater number of young fruits”, the “Total crop yielded (fruits)” value ([1]; Phe solution vs control) was “significantly increased the total crop yielded” and the Cumulative fruit weight ([1]; Phe treated vs control) was “significantly greater cumulative fruit weight”. For the same compound, the Number of fruits ([1]; Phe treated vs control) was “comparable amount”, the “Average weight per fruit” value ([1]; Phe treated vs control, FIG. 21C) was “significantly greater average weight per fruit” and the “Postharvest anthracnose in mango” value (Anthracnose) was “reduced”. The “Severity of Oidiopsis powdery mildew on tomato leaves” value (Oidiopsis sicula) was “significantly suppressed”, the “Levels of black spots” value (Colletotrichum; FIG. 19C) was “substantially reduced levels” and the Levels of pitting (Colletotrichum; FIG. 19D) was “substantially reduced levels”. For the same compound, the “Levels of black spots” value (Lasiodiplodia; FIG. 19C) was “substantially reduced levels”, the Levels of pitting (Lasiodiplodia; FIG. 19D) was “substantially reduced levels” and the Stem decay ([2]; post-harvest Phe solution, mango stored at 7° C. or 10° C., FIG. 19E) was “reduced”. The Side decay ([2]; post-harvest Phe solution, mango stored at 7° C. or 10° C., FIG. 19F) was “reduced”, the Total decay ([2]; post-harvest Phe solution, mango stored at 7° C. or 10° C., FIG. 19G) was “reduced” and the “Black spots on fruits, control versus treated” value ([2]; post-harvest mango fruits stored in 7° C., FIGS. 19A-19B) was “Control fruits were shown to have substantially more black spots”. The “Severity of damage of the moth Tuta absoluta leaf miner on tomato leaves” value (Tuta absoluta; 4 mM Phe solution, drench or spray, each treatment, FIG. 3C) was “significantly suppressed”, the “Leaf miner symptoms, small (up to 1 cm long) and large” value (Tuta absoluta; 4 mM Phe spray and Phe drench, 30 days after treatment, FIG. 3D) was “suppressed” and the “Rate (in %) of larger leaf miner symptoms” value (Tuta absoluta; 4 mM Phe spray and drench, 30 days after treatment, FIG. 3E) was “reduced”. For the same compound, the “Incidence of the Bemisia tabaci silver leaf whitefly on tomato leaves” value (Bemisia tabaci) was “significantly suppressed”.
